Assays:
Cathepsin K = molecular target: T1, Cathepsin K (Homo sapiens, UniProt P43235); test: Cathepsin K inhibition assay (fluorogenic peptide substrate); selectivity ratio vs cathepsin S; type: biochemical; conditions: ratio of cathepsin K inhibition constant to cathepsin S inhibition constant; Table II
T1 sequence (P43235 115-329): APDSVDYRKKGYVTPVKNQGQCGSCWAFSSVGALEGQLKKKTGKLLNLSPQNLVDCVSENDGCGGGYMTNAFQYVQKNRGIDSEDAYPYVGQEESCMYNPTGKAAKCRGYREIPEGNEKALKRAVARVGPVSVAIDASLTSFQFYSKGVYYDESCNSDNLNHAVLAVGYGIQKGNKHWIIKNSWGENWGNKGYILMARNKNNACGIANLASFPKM
Summary of the method: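 Inhibition constants for competitive inhibitors come from apparent values fitted to enzyme progress curves. Substrate, acetyl-Lys-His-Pro-Lys-aminocarbamoylcoumarin (40 μM final), starts the reaction; fluorescence rise read at 380 nm excitation, 450 nm emission. Selectivity ratio: other cathepsin constant over cathepsin S constant.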

Cathepsin S = Cathepsin S (Homo sapiens, UniProt P25774); test: Cathepsin S inhibition assay (fluorogenic peptide substrate); type: biochemical; conditions: Table II, compounds of Formula I; read-out: Ki Cat. S
Summary of the method: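 Ki values come from nonlinear fitting of inhibited hydrolysis rates, taking free and total inhibitor concentrations as equal. Rates measured as rising fluorescence at 380/450 nm after reaction start with 50 μM final acetyl-HPVK-aminocarbamoylcoumarin.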

Sequence of Cathepsin S (P25774 115-331, species assumed): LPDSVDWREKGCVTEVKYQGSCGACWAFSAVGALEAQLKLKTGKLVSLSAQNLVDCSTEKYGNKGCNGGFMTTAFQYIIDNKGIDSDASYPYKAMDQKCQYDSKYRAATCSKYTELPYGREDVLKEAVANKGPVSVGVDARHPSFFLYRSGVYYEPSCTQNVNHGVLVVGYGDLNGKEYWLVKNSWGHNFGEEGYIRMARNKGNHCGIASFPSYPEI

SMILES | Selectivity for Cat. S over Cat. K (Cathepsin K) | Ki (Cathepsin S) [nM]
COc1ccc(NCCNC(=O)C(NC(=O)c2cccc(C)c2)c2ccccc2OCc2ccccc2)cc1 (stereo not shown) [Compound 214, N-{(2-Benzyloxy-phenyl)-[2-(4-methoxy-phenylamino)-ethylcarbamoyl]-methyl}-3-methyl-benzamide] | +++ (+++, >1000) | < 100
Cc1ccc(C(C)C(=O)N[C@@H](CC2CCCCC2)C(=O)NCCNc2ccc(F)cc2)cc1 (stereo partly drawn) [Compound 309, N-{2-cyclohexyl-1-(S)-[2-(4-fluoro-phenylamino)-ethylcarbamoyl]-ethyl}-2-p-tolyl-propionamide] | ++ (++, >100) | < 100
COc1ccc(NCCNC(=O)[C@H](CCc2ccccc2)NC(=O)c2cccc(C)c2)cc1 [Compound 206, (S)-N-{1-[2-(4-Methoxy-phenylamino)-ethylcarbamoyl]-3-phenyl-propyl}-3-methyl-benzamide] | ++ (++, >100) | < 1000
O=C(N[C@@H](CC1CCCCC1)C(=O)NCCNc1ccc(OC(F)(F)F)cc1)c1ccc(-c2ccccc2F)o1 [Compound 212, (S)-5-(2-Fluoro-phenyl)-furan-2-carboxylic acid {2-cyclohexyl-1-[2-(4-trifluoromethoxy-phenylamino)-ethylcarbamoyl]-ethyl}-amide] | ++ (++, >100) | < 100
COc1ccc(NCCNC(=O)[C@H](Cc2ccccc2)NC(=O)Nc2ccccc2C)cc1 [Compound 97, (S)-N-[2-(4-Methoxy-phenylamino)-ethyl]-3-phenyl-2-(3-o-tolyl-ureido)-propionamide] | + (+, >10) | < 1000
COc1ccc(NCCNC(=O)[C@H](CC2CCCCC2)NC(=O)C2(c3ccccc3)CC2)cc1 [Compound 158, (S)-1-Phenyl-cyclopropanecarboxylic acid {2-cyclohexyl-1-[2-(4-methoxy-phenylamino)-ethylcarbamoyl]-ethyl}-amide] | ++ (++, >100) | < 100
COc1ccc(NCCNC(=O)[C@H](CC2CCCCC2)NC(=O)c2ccc3nc(N)sc3c2)cc1 [Compound 187, (S)-2-Amino-benzothiazole-6-carboxylic acid {2-cyclohexyl-1-[2-(4-methoxy-phenylamino)-ethylcarbamoyl]-ethyl}-amide] | + (+, >10) | < 100
COc1ccc(NCCNC(=O)[C@H](Cc2ccccc2)NC(=O)c2cccc(Br)c2)cc1 [Compound 78, (S)-3-Bromo-N-{1-[2-(4-methoxy-phenylamino)-ethylcarbamoyl]-2-phenyl-ethyl}-benzamide] | + (+, >10) | < 100
COc1ccc(NCCNC(=O)[C@H](Cc2ccc(Cl)c(Cl)c2)NC(=O)c2cccc(C)c2)cc1 [Compound 231, (S)-N-{2-(3,4-Dichloro-phenyl)-1-[2-(4-methoxy-phenylamino)-ethylcarbamoyl]-ethyl}-3-methyl-benzamide] | +++ (+++, >1000) | < 100
C[C@H](C(=O)N[C@@H](CC1CCCCC1)C(=O)NCCNc1ccc(F)cc1)c1ccccc1 [Compound 294, N-(S)-{2-cyclohexyl-1-[2-(4-fluoro-phenylamino)-ethylcarbamoyl]-ethyl}-2-(S)-phenyl-propionamide] | ++ (++, >100) | < 100
COc1ccc(NCCNC(=O)[C@H](Cc2ccccc2Cl)NC(=O)c2ccc(-c3cccc(C(F)(F)F)c3)o2)cc1 [Compound 2, N-((S)-1-(2-(4-methoxyphenylamino)ethylcarbamoyl)-2-(2-chlorophenyl)ethyl)-5-(3-(trifluoromethyl)phenyl)furan-2-carboxamide] | + (+, >10) | < 100
COc1ccc(NCCNC(=O)[C@H](Cc2ccccc2)NC(=O)Nc2ccc(C(C)=O)cc2)cc1 [Compound 103, (S)-2-[3-(4-Acetyl-phenyl)-ureido]-N-[2-(4-methoxy-phenylamino)-ethyl]-3-phenyl-propionamide] | ++ (++, >100) | < 1000
COc1ccc(NCCNC(=O)[C@H](Cc2ccccc2)NC(=O)c2ccncc2)cc1 [Compound 64, (S)-N-{1-[2-(4-Methoxy-phenylamino)-ethylcarbamoyl]-2-phenyl-ethyl}-isonicotinamide] | + (+, >10) | < 10000
COc1ccc(NCCNC(=O)[C@H](CCC2CCCCC2)NC(=O)c2ccc(OCc3ccccc3)cc2)cc1 [Compound 129, (S)-4-Benzyloxy-N-{3-cyclohexyl-1-[2-(4-methoxy-phenylamino)-ethylcarbamoyl]-propyl}-benzamide] | + (+, >10) | < 10000
COc1ccc(NCCNC(=O)[C@H](CC2CCCCC2)NC(=O)c2cc(C)c(OCc3ccccc3)c(C)c2)cc1 [Compound 110, (S)-4-Benzyloxy-N-{2-cyclohexyl-1-[2-(4-methoxy-phenylamino)-ethylcarbamoyl]-ethyl}-3,5-dimethyl-benzamide] | ++ (++, >100) | < 100
O=C(N[C@@H](CC1CCCCC1)C(=O)NCCNc1ccc(OC(F)(F)F)cc1)c1ccc(-c2ccccc2)o1 [Compound 65, 5-Phenyl-furan-2-carboxylic acid (S)-{2-cyclohexyl-1-[2-(4-trifluoromethoxy-phenylamino)-ethylcarbamoyl]-ethyl}-amide] | ++ (++, >100) | < 100
COc1ccc(NCCNC(=O)[C@H](Cc2ccccc2)NC(=O)Nc2cccc3ccccc23)cc1 [Compound 101, (S)-N-[2-(4-Methoxy-phenylamino)-ethyl]-2-(3-naphthalen-1-yl-ureido)-3-phenyl-propionamide] | + (+, >10) | < 1000
COc1ccc(NCCNC(=O)[C@H](CCC2CCCCC2)NC(=O)c2cccc(C(F)(F)F)c2)cc1 [Compound 126, (S)-N-{3-Cyclohexyl-1-[2-(4-methoxy-phenylamino)-ethylcarbamoyl]-propyl}-3-trifluoromethyl-benzamide] | +++ (+++, >1000) | < 100
COc1ccc(NCCNC(=O)[C@H](Cc2ccc(-c3cccnc3)cc2)NC(=O)c2cccc(C)c2)cc1 [Compound 274, (S)-N-[1-[2-(4-Methoxy-phenylamino)-ethylcarbamoyl]-2-(4-pyridin-3-yl-phenyl)-ethyl]-3-methyl-benzamide] | +++ (+++, >1000) | < 100
COc1ccc2[nH]c(C(=O)N[C@@H](CC3CCCCC3)C(=O)NCCNc3ccc(OC(F)(F)F)cc3)cc2c1 [Compound 22, 5-Methoxy-1H-indole-2-carboxylic acid (S)-{2-cyclohexyl-1-[2-(4-trifluoromethoxy-phenylamino)-ethylcarbamoyl]-ethyl}-amide] | + (+, >10) | < 1000
O=C(N[C@@H](CC1CCCCC1)C(=O)NCCNc1ccc(OC(F)(F)F)cc1)c1ccc(-c2cccc(F)c2)o1 [Compound 31, 5-(3-Fluoro-phenyl)-furan-2-carboxylic acid (S)-{2-cyclohexyl-1-[2-(4-trifluoromethoxy-phenylamino)-ethylcarbamoyl]-ethyl}-amide] | + (+, >10) | < 100
O=C(Cc1ccc(C(F)(F)F)cc1)N[C@@H](CC1CCCCC1)C(=O)NCCNc1ccc(F)cc1 [Compound 325, 3-Cyclohexyl-N-[2-(4-fluoro-phenylamino)-ethyl]-2-(S)-[2-(4-trifluoromethyl-phenyl)-acetylamino]-propionamide] | ++ (++, >100) | < 100
O=C(N[C@@H](CC1CCCCC1)C(=O)NCCNc1ccc(OC(F)(F)F)cc1)c1ccc(OCc2ccccc2)cc1 [Compound 232, (S)-4-Benzyloxy-N-{2-cyclohexyl-1-[2-(4-trifluoromethoxy-phenylamino)-ethylcarbamoyl]-ethyl}-benzamide] | + (+, >10) | < 100
Cc1oc(S(=O)(=O)N2CCOCC2)cc1C(=O)N[C@@H](CC1CCCCC1)C(=O)NCCNc1ccc(OC(F)(F)F)cc1 [Compound 49, 2-Methyl-5-(morpholine-4-sulfonyl)-furan-3carboxylic acid (S)-{2-cyclohexyl-1-[2-(4-trifluoromethoxy-phenylamino)-ethylcarbamoyl]-ethyl}-amide] | ++ (++, >100) | < 100
CC(=O)N1CCN(c2ccc(OCC(=O)N[C@@H](CC3CCCCC3)C(=O)NCCNc3ccc(OC(F)(F)F)cc3)cc2)CC1 [Compound 15, (S)-2-{2-[4-(4-Acetyl-piperazin-1-yl)-phenoxy]-acetylamino}-3-cyclohexyl-N-[2-(4-trifluoromethoxy-phenylamino)-ethyl]-propionamide] | + (+, >10) | < 1000
O=C(N[C@@H](CC1CCCCC1)C(=O)NCCNc1ccc(F)cc1)c1ccc(-c2ccc(F)cc2)o1 [Compound 322, 5-(4-Fluoro-phenyl)-furan-2-carboxylic acid (S)-{2-cyclohexyl-1-[2-(4-fluoro-phenylamino)-ethylcarbamoyl]-ethyl}-amide] | ++ (++, >100) | < 100
